System: C. albicans conditional mutants (SEC14 gene under tetracycline repressible promoter)
Assay: Murine model of systemic infection with C. albicans conditional mutants, kidney burdens
Format: in vivo, BALB/c mice
Settings: +DOX group (2 mg/ml in 5% sucrose drinking water), at the start of the study and at day 28; 1×10^6 CFU/mouse i.v.
Experimental: To further validate the essential nature of the SEC14 gene, the conditional mutants of C. albicans strains (as described in Example 4, section 4.1), wherein the SEC14 gene is under the control of a tetracycline repressible promoter, may be tested to determine whether they are attenuated in an immuno-competent murine model of infection (Ghannoum, et al, 1995) as follows:
Initially the organisms were grown in the absence of DOX, since under these conditions they would express the SEC14 gene. These organisms were then used to inoculate two groups of 12 of mice. One group wss treated with DOX, in which expression of the SEC14 gene was repressed, and the second group of mice was treated with water (control) wherein the gene continued to be expressed. The mice used were single sex BALB/c mice, Harlan, 4 weeks old and weighing between 19-22 g.
Infective doses of C. albicans were injected into the tail vein. The inocula were from saline-washed fresh stationary phase cultures grown in NGY medium [0.1% neopeptone, 0.4% glucose, 0.1% yeast extract] for 18-24 h at 30° C. […]
Animals were fed food and water ad libitum throughout the course of experiment. […] Differences between the effects of C. albicans with the SEC14 gene active (−DOX) or repressed (+DOX) in vivo were monitored by mouse survival, kidney burdens of viable fungi, and changes in body weight relative to baseline. […]

## C[C@H]1c2cccc(O)c2C(=O)C2=C(O)[C@]3(O)C(=O)C(C(N)=O)=C(O)[C@@H](N(C)C)[C@@H]3[C@@H](O)[C@@H]21 [doxycycline]
  Kidney counts (colony forming unit counts per gram of kidney tissue): < 200 cfu/g

Reference: patent US20060211081A1, “Sec14 as an antifungal target” (priority 2002, published 2006)
